Marks after values point to notes of the source that are not given here.
Legend:
CYP2C19 = CYP2C19 (Homo sapiens, UniProt P33261); details: after ritonavir discontinuation vs baseline
CYP3A4 = CYP3A4 activity time course with microdosed oral midazolam
[1] = Ritonavir plasma exposure during 5-day 100 mg bid therapy; format: in vivo, human
[2] = fifth day of ritonavir 100 mg bid vs before ritonavir; 8 healthy volunteers
[3] = with ketoconazole vs alone, previous trial EudraCT 2017-004453; cited from earlier work
[4] = healthy volunteers, 6 days of high-dose ritonavir 600 mg bid; cited from earlier work

CYP2C19, sequence (P33261 whole entry): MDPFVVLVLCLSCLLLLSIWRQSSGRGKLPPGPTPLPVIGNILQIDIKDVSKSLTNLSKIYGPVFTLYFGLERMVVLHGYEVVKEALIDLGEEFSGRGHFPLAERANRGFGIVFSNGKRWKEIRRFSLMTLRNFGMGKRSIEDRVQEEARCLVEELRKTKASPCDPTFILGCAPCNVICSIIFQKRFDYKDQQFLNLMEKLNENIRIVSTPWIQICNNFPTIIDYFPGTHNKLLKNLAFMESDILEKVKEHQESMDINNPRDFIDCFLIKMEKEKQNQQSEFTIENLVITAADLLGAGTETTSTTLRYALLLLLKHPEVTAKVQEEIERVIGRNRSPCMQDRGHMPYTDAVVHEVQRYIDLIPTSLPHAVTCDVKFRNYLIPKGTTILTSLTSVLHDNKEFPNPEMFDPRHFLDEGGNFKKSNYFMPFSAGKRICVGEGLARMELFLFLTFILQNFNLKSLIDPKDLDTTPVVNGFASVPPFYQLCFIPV

SMILES: COc1ccc2[nH]c([S+]([O-])Cc3ncc(C)c(OC)c3C)nc2c1 (stereo not drawn) [Omeprazole, omeprazole]
- Decrease of omeprazole AUC0–4 (CYP2C19): approximately 35%

SMILES: CC(C)c1nc(CN(C)C(=O)N[C@H](C(=O)N[C@@H](Cc2ccccc2)C[C@H](O)[C@H](Cc2ccccc2)NC(=O)OCc2cncs2)C(C)C)cs1 [ritonavir]
- Estimated time to full recovery of CYP3A4 activity (CYP3A4; after a 5-day treatment course with ritonavir 100 mg bid): 10 to 12 days
- AUC(0-t) ([1]; human, plasma, oral, 100 mg): 4590 to 5330 ng·h/mL
- Cmax ([1]; human, plasma, oral, 100 mg, Cmax of ritonavir, remaining 4 days of 100 mg bid): 1780 to 2110 ng/mL
- Ritonavir plasma concentrations ([1]; two days after the last ritonavir dose, LLOQ 10 ng/mL): close to or below the LLOQ

SMILES: O=C(NC[C@H]1CN(c2ccc(N3CCOCC3=O)cc2)C(=O)O1)c1ccc(Cl)s1 [Rivaroxaban, rivaroxaban]
- Geometric mean ratio (GMR) AUC0–24 [2]: 1.87*
- AUCinf ratio [3]: 2.37 ± 0.53
- Exposure (AUC) increase of rivaroxaban [4]: 2.5 fold

SMILES: Cc1ncc2n1-c1ccc(Cl)cc1C(c1ccccc1F)=NC2 [Midazolam, midazolam]
- Midazolam AUC2–4 increase, times baseline values (CYP3A4; from day 2 to day 5 of ritonavir treatment): 11.1–15.5 times baseline

Reference: article PMC11052790 (Clinical Pharmacokinetics, 2024)
